# Entries after “also recorded” stand apart in the source; their conditions may differ. Bridges are numbered along the chain shown (N, C = ends). Where no end group is shown, it is not given here.
# How the values were obtained:
# [1] = Relaxivity at 1.5T in water, 37° C.; type: physicochemical
# Method: Relaxivity is an important parameter for an MR contrast agent. It reflects how the relaxation rate of the surrounding water proton changes as a function of concentration, and it is directly associated with the agent's contrast enhancing capability during imaging. The relaxivity of the 4 contrast agents was tested at 37° C. in water and compared to Gd(HP-DO3A), Gd-DOTA and ZD2-Gd(HP-DO3A) (FIG. 26). […] Compared to Gd(HP-DO3A), Gd-DOTA, the size increase of the targeted contrast agents due to the peptides and PEG spacer could result in an increase of τR,^[42, 43] thus leading to higher relaxivities.
# [2] = In vivo transmetallation and urinary excretion; parameters: species or system mouse; details: 0.1 mmol-Gd/kg
# Method: Balb/c mice (Charles River Laboratories, Wilmington, Mass., USA) were randomly divided into groups of ZD2-Gd(HP-DO3A) and ProHance (n=5) and placed in the metabolism cages, 48 hours prior to injection. […] Urine samples were collected at 12 h pre-injection, and then 8, 24, 48, and 72 h post-injection from the metabolic box. The collected urine samples were centrifuged at 4,000 rpm for 15 min. The concentration of Gd(III), Zn(II), Cu(H), and Ca(II) in the supernatant of the urine samples was determined by ICP-OES after appropriate dilutions.
# [3] = target: EDB fragment (Homo sapiens, UniProt P02751); assay: Peptide ELISA of HRP-conjugated peptides on coated EDB; type: binding; details: HRP conjugates
# Method: A linear version of ZD2 (CTVRTSADA) SEQ ID NO: 42 was synthesized so that sulfhydryl group on cysteine could be used for conjugation with maleimide-activated […] (Sigma-Aldrich). Conjugation was carried out as instructed in the manual. The product of conjugation, ZD2-HRP, was used for peptide ELISA assay after coating a 96-well plate with purified EDB. 0.5% BSA in PBS was used to block non-specific binding for later steps. 0.39 μM to 50 μM of ZD2-HRP was incubated with coated EDB for an hour followed by extensive washing with TBST (0.1%). ABTS substrate was added subsequently and allowed to react for 30 min before the absorbance of solution in each well were measured at 415 nm. Non-coated wells added with ABTS were used as blank.
# Cyclic ZD2 peptide (CTVRTSADC) (SEQ ID NO: 10) was synthesized using standard solid phase peptide chemistry and was characterized by MALDI-TOF mass spectrometry (FIG. 1C). The peptide was then labeled with a fluorescence chromophore cyanine 5 (Cy5) through a short PEG linker (NH2—(CH2CH2O)—CH2CH2COOH) to give a peptide fluorescence probe ZD2-Cy5. The peptide was also conjugated to peroxidase (ZD2-HRP) and the binding affinity of the peptide to EDB fragment was determined using peptide ELISA assay.
# Similarly, CERAK-HRP is synthesized as a control.
# [4] = tested on: TGFβ induced 4T1 cells; assay: Binding of Cy5 probes to TGFβ induced 4T1 cells in vitro; type: cell-based; details: cell culture
# Method: As tumor cells produce EDB-FN to promote its migration, we further validated if Cy5 labeled l-ZD2 (l-ZD2-Cy5) can bind to TGFβ induced 4T1 cells in vitro. […] To explain this, we hypothesize that in this form of cell culture, no clot formation can take action to provide binding sites for CREKA-Cy5. To validate our hypothesis, we further produced a 3D culture system that mimics the “soil” of metastatic tumor. In the 3D culture system, 4T1 cells were cultured in a microenvironment containing TGFβ, collagen, and fibrin. […] In overall, these evidences point to the conclusion that the use of EDB-FN for targeting micrometastasis may be advantageous compared with Fibronectin-Fibrin complexes in that EDB-FN appears earlier than Fibronectin-Fibrin in the pre-metastatic niche.
# [5] = tested on: LNCaP prostate tumor xenografts; assay: In vivo T1-weighted MRI at 7T, LNCaP tumors; parameters: species or system mouse; details: 0.1 mmol/kg i.v., up to 30 min, 7T
# Method: (§1) All MRI experiments were performed on a horizontal 7T Bruker scanner (Bruker Biospin Co., Billerica, Mass.). Imaging experiments were performed when the tumor size reached 5-8 mm in diameter. ZD2-Gd(HP-DO3A) was administered intravenously at the dose of 0.1 mmol/kg after acquiring pre-contrast images. Post-contrast images were obtained at 10 min interval up to 30 min. The axial slices of mouse at the tumor location were acquired using T1-weighted spin echo sequence with the following parameters: field of view (FOV): 3 cm; slice thickness: 1.2 mm; interslice distance: 1.2 mm; TR: 500 ms, TE: 8.1 ms; flip angle: 90°; average: 2; matrix size: 128×128. Contrast-to-noise ratio (CNR) at each time point was calculated by subtraction of the average signal intensity in the tumor and muscle, divided by the standard deviation of image noise. ProHance® (gadoteridol) was used as a control in the imaging experiments.
# [6] = tested on: PC3 prostate tumor xenografts; assay: In vivo T1-weighted MRI at 7T, PC3 tumors; parameters: species or system mouse
# Method: as §1
# [7] = tested on: TGFβ1-induced PC3 cancer cells; assay: In vitro cellular binding, confocal microscopy; type: cell-based, human
# Method: PC3 cell line was purchased from American Type Culture Collection (ATCC, Manassas, Va., USA), and maintained in RPMI/10% FBS medium. The cells were transfected with lentivirus to express green fluorescent protein (GFP) at least 48 h prior to harvesting. To induce EMT, PC3 cells were cultured in the presence of TGFβ1 (5 ng/ml) for 5 days. For in vitro binding assay, nuclei of cells were stained with Hoechst 33342 (Life Technologies, Brooklyn, N.Y., USA) 24 h prior to adding 500 nM ZD2-Cy5. Cells were maintained in medium containing ZD2-Cy5 for 24 h and monitored with confocal microscopy. Intense shaking was avoided for live-cell binding study to retain secreted EDB-FN on the glass.
# [8] = tested on: PC3-GFP flank tumor xenografts
# Method: NIH athymic male nude mice, age 4-5 weeks, were maintained at the Athymic Animal Core Facility at Case Western Reserve University according to the animal protocols approved by the Institutional Animal Care and Use Committee (IACUC). For whole-body fluorescent imaging study, a flank tumor model was constructed. Each mouse was subcutaneously implanted in both flanks with 2×10^6 PC3-GFP cells mixed with an equal volume of in a mixture of PBS (50 μL culture medium and 50 μL PBS). Two to three weeks after inoculation, tumors reached an average size of 0.5 cm in diameter. The mice were used for imaging with Maestro FLEX In vivo Imaging System (Cambridge Research & Instrumentation, Inc. Woburn, Mass., USA) to monitor the targeting effect of ZD2 from 0 to 24 hours. Mice were intravenously injected with ZD2-Cy5 or CERAK-Cy5 (0.3 μmol/kg body weight). After 5 h, the mice were sacrificed and the tumor and various organs were imaged with the Maestro FLEX In vivo Imaging System.
# [9] = tested on: human prostate tumor sections; assay: Histological staining of human prostate sections
# Description: Human prostate sections were acquired from OriGene (Rockville, Md., USA). Antibodies used in this study include mouse monoclonal anti-Fibronectin antibody (BC-1, ab154210, Abcam, Cambridge, UK), Rhodamine-Red-X conjugated goat polyclonal anti-rabbit IgG (H+L) (Jackson Immuno Research Lab. West Grove, Pa., USA), and FITC conjugated goat polyclonal anti-mouse Fc (ab97264, Abcam). Frozen tissue section ([…]) imbedded in OCT was used for immunostaining and peptide staining. Paraffin embedded samples were de-paraffinized and processed with antigen retrieval using general methods. Sections were permeabilized and fixed with cold acetone followed by 0.5% BSA blocking for 1 hr at room temperature. Peptide staining was carried at the concentration of 5 uM. Slides were counter-stained with DAPI and mounted with coverslip using Prolong Gold regent (Invitrogen) before imaging. Stained tissue was imaged on an Olympus FV1000 confocal laser scanning microscope. GFP was observed using […] and the emission wavelength was read from 480 to 495 nm and represented as green. DAPI was observed using 405 nm laser and the emission wavelength was read from 450 to 470 nm and expressed as blue. Cy5.0 was observed using 635 nm laser and the emission wavelength was read from 655 to 755 nm and expressed as red.
# EDB fragment, sequence (P02751 1271-1359 limits assumed): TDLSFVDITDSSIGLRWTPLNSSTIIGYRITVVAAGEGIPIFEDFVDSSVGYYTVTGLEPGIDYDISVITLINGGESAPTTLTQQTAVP
compound,measurement,setting,value
"O=C([O-])CN1CCN(CC(=O)[O-])CCN(CC(=O)O)CCN(CC(=O)[O-])CC1.[Gd+3] [Gd-DOTA, reference compound]",r1,[1],2.9 mM⁻¹ s⁻¹
"CNC(=O)CN(CCN(CCN(CC(=O)[O-])CC(=O)NC)CC(=O)[O-])CC(=O)[O-].[Gd+3] [Omniscan, reference compound]",urine concentration of endogenous metal ions post-injection vs pre-injection,[2],significant increase in Zn(II) concentration
CERAK-HRP: control peptide CERAK conjugated to HRP (also: conjugated to HRP) [reference compound],binding to EDB protein,[3],no observable binding
"CREKA-Cy5: Cy5 probe of CREKA peptide, targets fibronectin-fibrin complexes (also: Cy5 conjugate) [reference compound]",binding to induced 4T1 cells,[4],no binding
"CREKA-Gd(HP-DO3A): fibrin-FN clot targeting contrast agent, CREKA (Cys-Arg-Glu-Lys-Ala) conjugated to Gd(HP-DO3A) (also: conjugated to Gd(HP-DO3A) (Gd complex)) [reference compound]",signal enhancement in LNCaP tumors,[5],significant contrast enhancement in the periphery
same,signal enhancement in PC3 tumors,"[6]; 0.1 mmol/kg i.v., up to 30 min, 7T",significant contrast enhancement in the periphery
same,difference in signal enhancement between the PC3 and LNCaP tumors,"[6]; mouse, in vivo",no significant difference
"GVK-(Gd-DOTA): GVK peptide, PEG spacer, p-NCS-Bz-DOTA-GA, Gd complex (GVKSYNE; also: PEG spacer, p-NCS-Bz-DOTA-GA, Gd complex)",r1,[1],4.3 mM⁻¹ s⁻¹
"IGK-(Gd-DOTA): IGK peptide, PEG spacer, p-NCS-Bz-DOTA-GA, Gd complex (IGKTNTL; also: PEG spacer, p-NCS-Bz-DOTA-GA, Gd complex)",r1,[1],4.6 mM⁻¹ s⁻¹
"ZD2-(Gd-DOTA): ZD2 peptide, PEG spacer, p-NCS-Bz-DOTA-GA, Gd complex (TVRTSAD; also: PEG spacer, p-NCS-Bz-DOTA-GA, Gd complex; listed as Homo sapiens)",r1,[1],4.1 mM⁻¹ s⁻¹
ZD2-Cy5: cyclic ZD2 (CTVRTSADC) labeled with Cy5 through a short PEG linker (CTVRTSADC-OH; disulfide 1-9 (inferred); not fully specified (N-terminus)),binding to the periphery of PC3 cells,"[7]; TGFβ1-induced (post-EMT) PC3 cells, vs untreated cells",substantially more binding; also recorded: strong binding
same,binding to PC3 cells,[7]; uninduced cells,non-binding
same,"accumulation in tumor, whole-body fluorescence imaging",[8]; 1.5 h after intravenous injection,significantly high accumulation
same,"tumor accumulation, ex vivo Cy5 signal of tumor and organs",[8]; 5 hours after injection,specific accumulation
same,tumor to normal (T/N) ratio of Cy5 signal,"[8]; maintained for up to 24 hours, compared with CERAK-Cy5",Relatively high
same,accumulation in the liver or lung,"[8]; mouse, in vivo",Little accumulation
same,staining of normal glands / BPH sections,[9]; 5 uM,unstained
same,tumor binding after blocking sections with BC-1,[9]; competitive staining,inhibited
same,staining of human prostate tumor sections,"[9]; high Gleason score (GS7, GS9), 5 uM",strong staining; also recorded: strong binding

# Source: patent publication US11738099B2, “Molecular probes and methods of use” (CASE WESTERN RESERVE UNIVERSITY, priority 2014, dated 2023)
